Assay results from patent publication US20250344734A1, “UNSATURATED FATTY ACIDS AND THEIR USE TO MODIFY TASTE” (Firmenich Incorporated, priority 2022, published 2025).

Biological target: T1, T2R54 (TAS2R39 (Homo sapiens, UniProt P59534))
T1 construct: expressed in transfected cells; host or cells: cells expressing a promiscuous G protein (e.g., G16g44)
T1 sequence (P59534 1-338): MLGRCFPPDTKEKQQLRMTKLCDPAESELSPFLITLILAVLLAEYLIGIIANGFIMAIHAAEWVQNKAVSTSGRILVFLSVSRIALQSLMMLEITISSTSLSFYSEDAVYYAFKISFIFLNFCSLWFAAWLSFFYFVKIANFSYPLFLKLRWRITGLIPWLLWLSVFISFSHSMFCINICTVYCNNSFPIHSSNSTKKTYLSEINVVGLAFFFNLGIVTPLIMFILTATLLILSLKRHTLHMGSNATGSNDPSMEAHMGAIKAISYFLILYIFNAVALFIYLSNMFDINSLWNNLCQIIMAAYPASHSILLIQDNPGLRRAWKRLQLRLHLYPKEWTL
Assay: FLIPR calcium assay, block of bitter agonist response, T2R54
Format: cell-based
Conditions: unsaturated fatty acid concentration of 200 µM, cells stimulated with known bitter agonist
Description: Cells expressing a promiscuous […] (e.g., G16g44) were transfected with vectors encoding 18 functional bitter receptor cDNAs, with one receptor per transfection. The cells were transfected directly in 384-well format high-density plates and incubated for 28 hours. Later, cells were loaded with the Ca-specific dye Fluo4-AM. After an incubation of 60 minutes, excess dye is washed off, and cells are stimulated with a known bitter agonist for each receptor and various unsaturated fatty acids. Changes in intracellular fluorescence are recorded using a FLIPR instrument. Bitter antagonists and corresponding receptors are identified based on percentage inhibition of agonist's activity on a given receptor.
The above protocol was carried out using 16 different unsaturated fatty acids. A particular T2R receptor was identified as being antagonized by a particular unsaturated fatty acid if it triggered a >25% block of agonist's cellular response at 200 μM concentration of unsaturated fatty acid. […] Table 2 indicates the sixteen (16) compounds tested by their compound number from Table 1 above. The 18 bitter taste receptors screened are the human bitter taste receptors we named. T2R01 (TAS2R01), T2R03 (TAS2R03), T2R04 (TAS2R04), T2R07 (TAS2R07), T2R08 (TAS2R08), T2R09 (TAS2R09), T2R10 (TAS2R10), T2R13 (TAS2R13), T2R14 (TAS2R14), T2R16 (TAS2R16), T2R54 (TAS2R39, T2R61 (TAS2R43), T2R63 (TA2R20), T2R64 (TAS2R31), T2R65 (TAS2R19), T2R67 (TAS2R50), T2R71 (TAS2R41), and T2R75 (TAS2R46). The corresponding IUPHAR nomenclature for each receptor is given in parenthesis. In Table 2, these receptors are identified by the last two digits. For example, T2R01 is indicated as 01. Table 2 reports the percentage block of cellular response over baseline at an unsaturated fatty acid concentration of 200 µM.

CC(C)=CCC/C(C)=C/C(=O)O [Compound 129]
percentage block of cellular response over baseline, 54: 90%
